Columns and labels:
6/50 antibody = assay: Cross-reactivity of 6/50 antibody with OA analogues in competitive ELISA (FIG. 9); assay type: binding, mouse; conditions: toxins in 40% MEOH
Procedure: FIG. 9A Assay wells were coated with OA and incubated with a fixed concentration of 6/50 IgG and varying amounts of each toxin in 40% MEOH.
FIG 9B & 9C Assay wells were coated with purified antiidiotypic antibody (1/59) F(ab')2 fragments (5 μg/ml) and incubated with a fixed concentration of mAb 6/50 (100 ng/ml) and varying amounts of OA analogues in 40% MEOH.
In FIG. 9A, the assay wells were coated with OA and incubated with a fixed concentration of 6/50 IgG and varying amounts of each toxin in 40% MEOH. Bound antibody was detected with HRP-conjugated anti-mouse IgG. Toxins used in this competitive ELISA were generously donated by Dr. Takeshi Yasumoto (Tohoku University, Japan).
For FIG. 9B and 9C, the assay wells were coated with purified anti-idiotypic (1/59) F(ab')2 (5μg/ml) and incubated with a fixed concentration of antibody 6/50 (100 ng/ml) and varying amounts of okadaic acid analogues in 40% MEOH. Bound 6/50 IgG was detected with HRP-conjugated anti-mouse IgG Fc fragment specific antisera.

[1] = system: F(ab')2 fragments of 6/50 IgG; assay: Competition ELISA, Example II: free OA versus 1/59 IgG for binding to solid-phase 6/50 F(ab')2; parameters: species or system mouse; conditions: free OA 0-10 μg/ml in 10% MeOH, 1/59 500 ng/ml
Procedure: In the reverse assay, 96-well microtiter plates are coated with 100 μl of 10 μg/ml of F(ab')2 fragments of 6/50 IgG in 0.05M sodium carbonate bicarbonate buffer, pH 9.6, overnight at 4° C. The unbound F(ab')2 fragments are washed off with Tris-buffered saline and the remaining binding sites are saturated with 200 μl of 1% powdered-milk in Tris-saline (TS-MILK) for one hour at 37° C. After washing, the wells are incubated simultaneously with 50 μl of a fixed amount of anti-idiotypic IgG 1/59 (500 ng/ml) and 50 μl of free OA diluted in 10% methanol (MeOH) at increasing concentrations (0-10 μg/ml) for one hour at 37° C. After the unbound antibody and antigen are washed off, 100 μl of a peroxidase conjugated goat anti-mouse IgG Fc-fragment-specific antiserum is added for one hour at 37° C.
The colorimetric reaction is developed upon the addition of 0.03% H2 O2 in 0.1 M sodium citrate buffer, pH 7.0, containing 0.1% OPD. The reaction is stopped with 3 N H2 SO4 and the color intensity measured at a wavelength of 492 nm using a BioRad® ELISA reader.

[2] = target: protein phosphatase-1 (PP1) catalytic subunit; assay: Standard phosphorylase a phosphatase assay, PP1; assay type: biochemical, rabbit; conditions: standard commercial preparation of okadaic acid; read-out: IC50 for PP1 inhibition
Procedure: (§1) The biological activity of OA was assayed by the ability of this toxin to inhibit dephosphorylation of ^32 P-radiolabelled glycogen phosphorylase (E.C. 2.4.1.1) by protein phosphatases (E.C. 3.1.3.16) in the standard phosphorylase phosphatase assay.
(§2) Phosphorylase (50 mM) is dialyzed extensively against NaF (15 mM) to block endogenous phosphatase activity. The protein is diluted to 3 mg/ml (30 pmol/μl ) in Tris HCl (50 mM, pH 7.0) containing ethylenediamine tetra-acetic acid (EDTA, 0.1 mM), bovine serum albumin (1 mg/ml), 2-mercaptoethanol (0.2% v/v) and caffeine (15mM). An incubation comprising 10 μl protein phosphatase-1 or -2A (PP2A, 1 mU/ml in Tris HCl, pH 7.0) and 10 μl phosphatase inhibitor (in Tris HCl, pH 7.0) is carried out for 10 minutes at 30° C. An aliquot (10 μl) of phosphorylase (30 pmol/μl, specific radioactivity >0.6×10^6 dpm/nmol) is added to start the reaction, which is terminated after 10 minutes by adding 200 μl trichloroacetic acid (20% w/v,TCA). The suspension is vortexed, stood on ice for 1 minute and centrifuged at 15,000g for 2 minutes. An aliquot (200 μl) of supernatant is added to 1 ml scintillant and counted. One milliunit(mU) of protein phosphatase activity releases 1 nmol phosphate from phosphorylase per minute. […]

[3] = target: T1, protein phosphatase-2A (PP2A) catalytic subunit (Oryctolagus cuniculus, UniProt P67777); assay: Standard phosphorylase a phosphatase assay, PP2A; assay type: biochemical, rabbit; conditions: standard commercial preparation of okadaic acid; read-out: IC50 for PP2A inhibition
T1 construct: Homogeneous PP-1 and -2A catalytic subunits are purified from rabbit skeletal muscle; from tissue; host or cells: rabbit skeletal muscle
Procedure: as §1, §2

6/50 IgG = assay: Competitive ELISA, Example IV: solid-phase OA versus free OA for binding to 6/50 IgG; parameters: species or system mouse; conditions: OA standards 0-30 ng/ml in 10% MeOH
Procedure: This assay is based on the competition between solid-phase attached OA and free OA (analyte) for binding to a limited number of binding sites on 6/50 IgG in solution.
Thus, 96-well microtiter plates are coated with 100 μl of OA-OVAL (10 μg/ml) in 0.05M sodium carbonate bicarbonate buffer, pH 9.6, overnight at 4° C. The unbrund OA-OVAL is washed off with Tris-buffered saline and the remaining binding sites are saturated with 200 μl of TS-MILK for one hour at 37° C. After washing, the wells are incubated simultaneously with 50 μl of OA standards (0-30 ng/ml) diluted in 10% MeOH and applied in the presence of 50 μl of limiting amounts of 6/50 IgG for one hour at 37° C. After the unbound antibody and antigen are washed off, 100 μl of a peroxidase conjugated goat anti-mouse IgG antiserum diluted in TS-MILK is added and incubated for one hour at 37° C.
Ihe colorimetric reaction is developed upon the add:tion of 0.03% H2 O2 in 0.1 M sodium citrate buffer, pH 7.0, containing 0.1% OPD. The reaction is stopped with 3 N H2 SO4 and the color intensity measured at a wavelength of 492 nm using a BioRad ELISA reader.

Solubility of OA = assay type: physicochemical
Description: It is obvious that methanol has a deleterious effect on 6/50 IgG binding to OA since the sensitivity of OA detection in the presence of 40% MeOH drops considerably when compared with 10% MeOH content. The addition of 10% MeOH seems to be the optimal for this assay. Absence of MeOH decreases OA solubility and thus the slope of the standard curve.

T1 sequence (P67777 whole entry): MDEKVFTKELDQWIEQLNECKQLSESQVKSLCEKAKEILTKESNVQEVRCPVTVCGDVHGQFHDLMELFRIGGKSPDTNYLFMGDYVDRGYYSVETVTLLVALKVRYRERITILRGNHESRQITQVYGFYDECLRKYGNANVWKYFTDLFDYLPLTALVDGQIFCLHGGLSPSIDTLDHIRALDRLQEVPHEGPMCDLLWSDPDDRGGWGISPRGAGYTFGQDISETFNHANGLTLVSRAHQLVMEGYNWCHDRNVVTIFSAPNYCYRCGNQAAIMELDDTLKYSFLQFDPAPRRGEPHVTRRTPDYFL

Structure (SMILES) | binding to 6/50 antibody relative to okadaic acid (cross-reactivity) (6/50 antibody) | inhibition of 1/59 IgG binding to solid-phase bound 6/50 IgG F(ab')2 [1] | IC50 [2] [nM] | IC50 [3] [nM] | competition with solid-phase fixed OA for binding to 6/50 (6/50 IgG) | solubility (Solubility of OA)
C=C1C(O)C2OC3(CCC(C=CC(C)C4CC(C)=CC5(OC(CC(C)(O)C(=O)O)CCC5O)O4)O3)CCC2OC1C(O)CC(C)C1OC2(CCC1C)OCCCC2C (stereo not shown) [DTX-1, 35-methyl-okadaic acid] | significantly lower affinity |  |  |  |  | 
C=C1[C@@H](O)[C@@H]2O[C@]3(CC[C@H](/C=C/[C@@H](C)[C@@H]4CC(C)=C[C@@]5(O[C@H](C[C@@](C)(O)C(=O)O)CC[C@H]5O)O4)O3)CC[C@H]2O[C@@H]1[C@@H](O)C[C@H](C)[C@H]1O[C@@]2(CCCCO2)CC[C@H]1C [okadaic acid] |  | clearly inhibited | 19 | 0.2 | dose-dependent manner | only soluble in the presence of organic solvents
C=C1C(C(CC(C)C2OC3(CCCCO3)CCC2C)OC(C)=O)OC2CCC3(CCC(C=CC(C)C4CC(C)=CC5(OC(CC(C)(OC(C)=O)C(=O)O)CCC5OC(C)=O)O4)O3)OC2C1OC(C)=O (stereo not shown) [tetra acetyl okadaic acid] | significantly lower affinity |  |  |  |  | 
